Results taken from patent publication US20060166867A1, “Novel conjugates of polysaccharides and uses thereof” (priority 2003, published 2006).
Converted amounts (≈) assume the structure as drawn. “And” between values parts separate entries of the source, which are not always exact repeats. Equal values may be shown once. Read-outs that look alike come from different tables or passages of the source.

Legend:
[1] = test system: Proteus mirabilis ATCC 7002; conditions: Gram negative reference strain
[2] = test system: K. pneumoniae-ESBL positive; conditions: Gram negative clinical isolate
Enterobacter aerogenes = conditions: Gram negative clinical isolate
Enterobacter cloacae [3] = conditions: Gram negative clinical isolate
HIV-1 Ba-L = format: cell-based; conditions: Table 4
Protocol: (§1) Inhibition of HIV-1 cell replication was tested using the cMAGI assay, which is based on the ability of HIV-1 TAT to transactivate the expression of an integrated β-galactosidase reporter gene driven by the HIV-LTR (B. Chackeria et al., J. Virol., (1997) 71, 3932; Collins et al., Nat. Med. (2000) 6, 475). The β-galactosidase reporter is modified to remain localized in the nucleus where it can be detected with the X-gal (5-bromo-4-chloro-3indoyl-β-D-galactopyranoside) substrate as an intense nuclear stain within a few days of infection.
(§2) HIV-1 isolates were propagated by subculture in MT2 cells (Litovchick et al. (2001) supra). Aliquots of cell-free culture supernatants were used as viral inoculum. PAACs were dissolved in the RPMI 1640 medium. Cytotoxicity determinations were carried out in MT2 cells by trypan blue exclusion assay. Viral inhibition was determined by incubating MT2 or cMAGI HIV-1 reporter cells with 0.2-0.5 multiplicity of infection of HIV-1 wild type or resistant virus for 4 days at 37° C. in the presence or absence of various concentrations of pAACs. HIV-1 infection of cMAGI cells was determined by counting the number of HIV-1-infected cells (stained blue). The cytopathic effects of the viral infection of MT2 cells were also analyzed by microscopic assessment of syncytium formation.

[4] = test system: HIV-1 NeoR6 resistant virus; format: cell-based; conditions: read-out: EC50 NeoR6^Res; Table 4
Protocol: as §1, §2

[5] = test system: HIV-1 Protease resistant virus; format: cell-based; conditions: Table 4; read-out: EC50 Protease^Res
Protocol: as §1, §2

[6] = test system: HIV-1 clinical isolate Clade A; format: cell-based
Protocol: as §1, §2

[7] = test system: HIV-1 AZT resistant virus; format: cell-based; conditions: Table 4; read-out: EC50 AZT^Res
Protocol: as §1, §2

[8] = test system: HIV-1 clinical isolate Clade C; format: cell-based
Protocol: as §1, §2

VRE faecium = conditions: clinical isolate, Table 7
S. aureus MSSA [9] = conditions: Gram positive clinical isolate
Serratia marcescens = conditions: Gram negative clinical isolate
[10] = test system: A. baumannii-amikacin^s, meropenem^s; conditions: Gram negative clinical isolate
S. aureus MSSA [11] = test: microbe, parasite or virus in culture; conditions: Staphylococcus aureus, read-out: Minimum Inhibitory Concentration
P. aeruginosa R17093 = test: MIC, broth microdilution; format: cell-based, Pseudomonas aeruginosa; conditions: Gram negative clinical isolate, read-out: Minimum Inhibitory Concentration
[12] = test system: P. aeruginosa-gentamicin^s, meropenem^s; test: microbe, parasite or virus in culture; conditions: Pseudomonas aeruginosa, read-out: Minimum Inhibitory Concentration
Strep. Pyogenes (gr. A) = test: MIC, broth microdilution; format: cell-based; conditions: Streptococcus pyogenes; Gram positive clinical isolate; read-out: Minimum Inhibitory Concentration
Enterobacter cloacae [13] = test: microbe, parasite or virus in culture; conditions: read-out: Minimum Inhibitory Concentration
S. epidermidis MSSE = test: microbe, parasite or virus in culture; conditions: Staphylococcus epidermidis, read-out: Minimum Inhibitory Concentration
[14] = test system: A. baumannii-amikacin^s, meropenem^s; test: microbe, parasite or virus in culture; conditions: Acinetobacter baumannii, read-out: Minimum Inhibitory Concentration
[15] = test system: Enterococcus faecalis (clinical isolate); test: microbe, parasite or virus in culture; conditions: read-out: Minimum Inhibitory Concentration
[16] = test system: Moraxella catarrhalis ATCC 25238 (Branhamella); test: microbe, parasite or virus in culture; conditions: ATCC25238, read-out: Minimum Inhibitory Concentration
[17] = test system: K. pneumoniae-ESBL negative; test: microbe, parasite or virus in culture; conditions: Klebsiella pneumoniae, read-out: Minimum Inhibitory Concentration
S. epidermidis B32954 = test: MIC, broth microdilution; format: cell-based, Staphylococcus epidermidis; conditions: Staphylococcus epidermidis, B32954; Gram positive clinical isolate; read-out: Minimum Inhibitory Concentration
[18] = test system: A. baumannii-amikacin^r, meropenem^r; test: microbe, parasite or virus in culture; conditions: Acinetobacter baumannii, read-out: Minimum Inhibitory Concentration
K. pneumoniae B2511 = test: MIC, broth microdilution; format: cell-based; conditions: Klebsiella pneumoniae, Gram negative clinical isolate, read-out: Minimum Inhibitory Concentration
E. coli U23773^r = test: microbe, parasite or virus in culture; conditions: Escherichia coli, read-out: Minimum Inhibitory Concentration
[19] = test system: Pseudomonas aeruginosa ATCC 27853; test: microbe, parasite or virus in culture; conditions: ATCC27853, read-out: Minimum Inhibitory Concentration
S. epidermidis MRSE = test: microbe, parasite or virus in culture; conditions: Staphylococcus epidermidis, read-out: Minimum Inhibitory Concentration

Compound	Minimum Inhibitory Concentration [1]	Minimum Inhibitory Concentration [2]	Minimum Inhibitory Concentration (Enterobacter aerogenes)	Minimum Inhibitory Concentration (Enterobacter cloacae [3])	EC50 (HIV-1 Ba-L)	EC50 [4]	EC50 [5]	EC50 [7]	Minimum Inhibitory Concentration (S. aureus MSSA [9])	Minimum Inhibitory Concentration (Serratia marcescens)	Minimum Inhibitory Concentration [10]	further results
CC(=O)N[C@H](CCCNC(=N)N)C(=O)N[C@H](CCCNC(=N)N)C(=O)N[C@H](CCCNC(=N)N)C(=O)N[C@H](CCCNC(=N)N)C(=O)N[C@H](CCCNC(=N)N)C(=O)N[C@H](CCCNC(=N)N)C(=O)N[C@H](CCCNC(=N)N)C(=O)N[C@H](CCCNC(=N)N)C(=O)N[C@H](CCCNC(=N)N)C(=O)O [Compound 12, D-Arg-9-mer-NHAc]	> 256.0 mg/liter and 127.64 μM	48.0 mg/liter and 23.93 μM	128.0 mg/liter and 63.82 μM	128.0 mg/liter and 63.82 μM	> 50000 nM	2000 ± 1200 nM	1400 ± 600 nM	9700 ± 5900 nM	> 128.0 mg/liter and 63.82 μM	> 256.0 mg/liter and 127.64 μM	256.0 mg/liter and 127.64 μM	EC50 ([6]; clinical isolate Clade A): 2200 ± 300 nM; EC50 ([8]; clinical isolate Clade C): 1600 ± 400 nM; Minimum Inhibitory Concentration (VRE faecium): > 128.0 mg/L
NCC1OC(OC2C(CO)OC(OC3C(O)C(N)CC(N)C3OC3OC(CN)C(O)C(O)C3N)C2O)C(N)C(O)C1O (centres unmarked) [Neomycin]	–	–	–	–	–	–	–	–	–	–	–	MIC (S. aureus MSSA [11]): 1 µg/mL and 1.1 µM; MIC (P. aeruginosa R17093): 211.22 µM (≈ 130 µg/mL); MIC (P. aeruginosa R17093; Pseudomonas aeruginosa, R17093): 211 µM and 192 µg/mL; MIC [12]: 16 µg/mL and 17.6 µM; MIC (Strep. Pyogenes (gr. A)): 16 µg/mL and 17.6 µM; MIC (Enterobacter cloacae [13]): 4 µg/mL and 4.4 µM; MIC (S. epidermidis MSSE): 0.5 µg/mL and 0.55 µM; MIC [14]: 3 µg/mL and 3.3 µM; MIC [15]: 128 µg/mL and 141 µM; MIC [16]: 0.25 µg/mL and 0.28 µM; MIC [17]: 0.7 µg/mL and 0.77 µM; MIC (S. epidermidis B32954): 0.5 µg/mL and 0.55 µM; MIC [18]: 106 µM and 96 µg/mL; MIC (K. pneumoniae B2511): 1.5 µg/mL and 1.65 µM; MIC (E. coli U23773^r): 141 µM and 128 µg/mL; MIC [19]: 128 µg/mL and 141 µM; MIC (S. epidermidis MRSE): 0.5 µg/mL and 0.55 µM
D-Arg-9-mer-neomycin [Compound 14]	64.0 mg/liter and 22.05 μM	32.0 mg/liter and 11.02 μM	32.0 mg/liter and 11.02 μM	64.0 mg/liter and 22.05 μM	> 50000 nM	2000 ± 500 nM	1500 ± 400 nM	6600 ± 5900 nM	16.0 mg/liter and 5.51 μM	64.0 mg/liter and 22.05 μM	128.0 mg/liter and 44.11 μM	EC50 ([6]; Table 4, read-out: EC50 Clade A): 2100 ± 400 nM; EC50 ([8]; Table 4, read-out: EC50 Clade C): 1200 ± 500 nM
